Assay results reported in patent US8163940B2, “Method for preparation of amorphous, anhydrous crystalline or hydrated crystalline docetaxel” (Samyang Genex Corporation, priority 2006, dated 2012).
Values joined by “and” are separate entries in the source; they are usually repeats but may differ in a detail not shown here. Equal values may be shown once.

Test: Stability of docetaxel dissolved and left standing in alcohols at 50° C. (HPLC purity and degradation degree)
Assay type: physicochemical
Conditions: dissolution and standing at 50° C.
Procedure: The purity and recovery rate of docetaxel in the present specification were calculated by quantity analysis using HPLC under the conditions of Table 2.
To evaluate the stability of docetaxel in the case that hydrated crystalline docetaxel is prepared by dissolution in alcohols at a high temperature, methanol and ethanol were each used as an organic solvent and dissolution temperature and standing temperature were 50° C., and change in purity of docetaxel and degradation degree were measured after letting it stand for 0, 1, 5, 10, and 24 hours.

7-epi-docetaxel Amounts Produced (EtOH, 0 hr): 0 area %
Change in Purity of Docetaxel (EtOH, 0 hr): 99.7480%
7-epi-docetaxel Amounts Produced (EtOH, 1 hr): 0.4494 area %
Change in Purity of Docetaxel (EtOH, 1 hr): 99.2959%
7-epi-docetaxel Amounts Produced (EtOH, 5 hr): 1.8948 area %
Change in Purity of Docetaxel (EtOH, 5 hr): 97.8546%
7-epi-docetaxel Amounts Produced (EtOH, 10 hr): 2.9451 area %
Change in Purity of Docetaxel (EtOH, 10 hr): 96.8045%
7-epi-docetaxel Amounts Produced (EtOH, 24 hr): 4.5544 area %
Change in Purity of Docetaxel (EtOH, 24 hr): 95.1952%
7-epi-docetaxel Amounts Produced (MeOH, 0 hr): 0 area %
Change in Purity of Docetaxel (MeOH, 0 hr): 99.7469%
7-epi-docetaxel Amounts Produced (MeOH, 1 hr): 4.0163 area %
Change in Purity of Docetaxel (MeOH, 1 hr): 95.7% and 95.7399%
7-epi-docetaxel Amounts Produced (MeOH, 5 hr): 17.2282 area %
Change in Purity of Docetaxel (MeOH, 5 hr): 81.8743%
7-epi-docetaxel Amounts Produced (MeOH, 10 hr): 28.4728 area %
Change in Purity of Docetaxel (MeOH, 10 hr): 69.3707%
7-epi-docetaxel Amounts Produced (MeOH, 24 hr): 41.5352 area %
Change in Purity of Docetaxel (MeOH, 24 hr): 50.7338%
Structure (SMILES): CC(=O)O[C@@]12CO[C@@H]1C[C@H](O)[C@@]1(C)C(=O)[C@H](O)C3=C(C)[C@@H](OC(=O)[C@H](O)[C@@H](NC(=O)OC(C)(C)C)c4ccccc4)C[C@@](O)([C@@H](OC(=O)c4ccccc4)[C@H]21)C3(C)C [docetaxel]
